Results from patent publication US9556135B2, “Amino-dihydrothiazine and amino-dioxido dihydrothiazine compounds as beta-secretase antagonists and methods of use” (Amgen Inc., priority 2012, dated 2017).
Like-named read-outs stand apart in the source and are kept apart here.

Experiments:
Cathepsin D (Cat D) = Cathepsin D (Cat D) (Homo sapiens (Human), UniProt P07339); assay: In vitro enzymatic Cathepsin D (Cat D) FRET assay; assay type: biochemical; settings: read-out: CatD IC50
Procedure: In Vitro Enzymatic Cathepsin D (Cat D) FRET (Fluorescence Resonance Energy Transfer) Assay Recombinant Cat D was expressed in CHO cells. […] The Cat D enzyme (9 nM) is pre-incubated for one hour with inhibitors, typically in about 1 uL of DMSO according to a serial dilution, is added thereto. […] The FRET assay is terminated with by addition of Tris buffer, which raises the pH to neutrality, and the fluorescence is determined. The FRET substrate is a peptide with commercially available fluorophore and quencher, on opposite sides of the BACE cleavage site. The Cat D substrate peptide sequence is based on sequence #1 of Table 1 from Gulnik et al. […] Where available, the in-vitro Cat D FRET assay data for each of the Examples, conducted by the first procedure, is provided.

[1] = molecular target: Beta Secretase enzyme (BACE1) (Homo sapiens (Human), UniProt P56817); assay: In vitro enzymatic BACE FRET assay; assay type: biochemical
Procedure: In Vitro Enzymatic BACE FRET (Fluorescence Resonance Energy Transfer) Assay (Enzyme Assay Data in the Example Tables I and II)
The assay buffer used in this screen is 0.05 M acetate, pH 4.2, 10% DMSO final, 100 uM genapol (which is a nonionic detergent, below its Critical Micelle Concentration). […] This assay is effectively started by the addition of FRET substrate (50 nM) and the combination is incubated for one hour. The FRET assay is terminated with by addition of Tris buffer, which raises the pH to neutrality, and the fluorescence is determined. The FRET substrate is a peptide with commercially available fluorophore and quencher, on opposite sides of the BACE cleavage site. Proteolytic cleavage of the FRET substrate releases quenching of fluorescence (excitation […] and […]).

[2] = test system: Aβ40 in conditioned medium of cells stably expressing Amyloid Precursor Protein (APP); assay: In vitro BACE cell-based assay (HEK cell assay), Aβ40 sandwich ELISA
Procedure: In Vitro BACE Cell-Based Assay
The cell-based assay measures inhibition or reduction of Aβ40 in conditioned medium of test compound treated cells expressing amyloid precursor protein.
Cells stably expressing Amyloid Precursor Protein (APP) were plated at a density of 40K cells/well in 96 well plates (Costar). The cells were cultivated for 24 hours at 37° C. and 5% CO2 in DMEM supplemented with 10% FBS. The test compounds were then added to cells in 10-point dose response concentrations with the starting concentration being either 100 μM or 10 μM. The compounds were diluted from stock solutions in DMSO and the final DMSO concentration of the test compounds on cells was 0.1%. After 24 h of incubation with the test compounds the supernatant conditioned media was collected and the Aβ 40 levels were determined using a sandwich ELISA. The IC50 of the compound was calculated from the percent of control or percent inhibition of Aβ 40 as a function of the concentration of the test compound.
The sandwich ELISA to detect Aβ 40 was performed in 96 well microtiter plates, which were pre-treated with goat anti-rabbit IgG (Pierce). The capture and detecting antibody pair that were used to detect Aβ 40 from cell supernatants were affinity purified pAb40 (Biosource) and biotinylated 6E10 (Signet Labs Inc.), respectively. The optimal concentration for the pAb40 antibody was 3 μg/ml in Superblock/TBS (Pierce) that was supplemented with 0.05% Tween 20 (Sigma).
Cellular supernatants were incubated with the capture antibody for 3 h at 4° C., followed by 3 wash steps in TBS-tween (0.05%). The detecting antibody incubation was for 2 h at 4° C., again followed by the wash steps as described previously. The final readout of the ELISA is Time-Resolved Fluorescence (counts per minute) using Delfia reagents Streptavidin-Europium and Enhancement solutions (Perkin Elmer) and the Victor 2 multilabel counter (Perkin Elmer).

Abeta 40 = assay: In vivo inhibition of beta-secretase: Abeta 40 reduction in CSF and brain of the rat; settings: 10 mpk (unless otherwise noted), after 4 hrs
[3] = average IC50, enzyme assay (Table II)
[4] = Homo sapiens, HEK293, average IC50, HEK cell assay

Sequence of Beta Secretase enzyme (BACE1) (P56817 46-501): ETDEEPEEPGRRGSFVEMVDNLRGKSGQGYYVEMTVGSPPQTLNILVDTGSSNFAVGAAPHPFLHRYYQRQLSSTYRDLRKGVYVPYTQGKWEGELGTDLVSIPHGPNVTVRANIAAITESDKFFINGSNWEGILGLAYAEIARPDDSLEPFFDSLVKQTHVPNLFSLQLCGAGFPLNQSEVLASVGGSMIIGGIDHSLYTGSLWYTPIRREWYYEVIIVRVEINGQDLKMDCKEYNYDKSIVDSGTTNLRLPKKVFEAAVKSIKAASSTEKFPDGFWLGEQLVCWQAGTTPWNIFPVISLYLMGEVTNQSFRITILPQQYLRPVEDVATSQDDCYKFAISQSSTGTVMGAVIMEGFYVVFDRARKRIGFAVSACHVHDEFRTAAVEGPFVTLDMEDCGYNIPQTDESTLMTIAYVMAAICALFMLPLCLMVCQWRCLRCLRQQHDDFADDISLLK
Sequence of Cathepsin D (Cat D) (P07339 65-412, species assumed): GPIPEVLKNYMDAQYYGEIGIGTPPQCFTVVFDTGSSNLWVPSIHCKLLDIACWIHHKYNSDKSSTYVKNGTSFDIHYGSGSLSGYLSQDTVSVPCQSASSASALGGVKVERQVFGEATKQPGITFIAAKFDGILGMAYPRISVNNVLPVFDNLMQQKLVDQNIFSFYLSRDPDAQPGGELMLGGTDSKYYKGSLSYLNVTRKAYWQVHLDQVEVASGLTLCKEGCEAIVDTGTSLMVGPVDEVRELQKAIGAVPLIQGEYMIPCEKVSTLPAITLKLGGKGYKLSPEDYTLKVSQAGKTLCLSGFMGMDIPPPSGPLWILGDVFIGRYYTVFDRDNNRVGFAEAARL

Row | Compound | IC50 (Cathepsin D (Cat D)) [µM] | IC50 ([1]; average IC50, enzyme assay) [nM] | IC50 ([2]; average IC50, cell assay) [nM] | IC50 (Cathepsin D (Cat D); Cathepsin D FRET assay) [µM] | IC50 [2, 4] [nM] | also measured
1 | COc1cnc(C(=O)Nc2ccc(F)c([C@@]3(C(F)(F)F)CS(=O)(=O)C(C)(C)C(N)=N3)c2)cn1 [Example 34, N-(3-((3R)-5-amino-6,6-dimethyl-1,1-dioxido-3-(trifluoromethyl)-3,6-dihydro-2H-1,4-thiazin-3-yl)-4-fluorophenyl)-5-methoxy-2-pyrazinecarboxamide] | > 400 | – | – | – | – | IC50 [1]: 883 nM; IC50 ([2]; Homo sapiens, HEK293, Aβ40 in conditioned medium after 24 h incubation): > 10000 nM
2 | COc1cnc(C(=O)Nc2cc([C@@]3(C)CS(=O)(=O)C(C)(C)C(N)=N3)c(F)cn2)cn1 [Example 142, (S)—N-(4-(5-amino-3,6,6-trimethyl-1,1-dioxido-3,6-dihydro-2H-1,4-thiazin-3-yl)-5-fluoropyridin-2-yl)-5-methoxypyrazine-2-carboxamide] | > 400 | – | – | – | – | IC50 ([1]; average IC50): 10000 nM; IC50 ([2]; Homo sapiens, HEK293, average IC50): 4360 nM
3 | COc1cnc(C(=O)Nc2cc([C@]3(C)CS(=O)(=O)C(C)(C)C(N)=N3)c(F)cn2)cn1 [Example 143, (R)—N-(4-(5-amino-3,6,6-trimethyl-1,1-dioxido-3,6-dihydro-2H-1,4-thiazin-3-yl)-5-fluoropyridin-2-yl)-5-methoxypyrazine-2-carboxamide] | – | – | – | – | – | IC50 (Cathepsin D (Cat D); Table II): 221 µM; IC50 [1, 3]: 115 nM; IC50 ([2]; Homo sapiens, HEK293, average IC50, cell assay (Table II)): 462 nM
4 | Cc1cc(C(F)F)cnc1C(=O)Nc1ccc(F)c([C@]2(C)CS(=O)(=O)[C@]3(C[C@@H](F)C3)C(N)=N2)c1 [Example 338, N-(3-((2S,4s,7R)-9-amino-2-fluoro-7-methyl-5,5-dioxido-5-thia-8-azaspiro[3.5]non-8-en-7-yl)-4-fluorophenyl)-5-(diffuoromethyl)-3-methyl-2-pyridinecarboxamide] | – | – | – | – | – | IC50 (Cathepsin D (Cat D); Table II): 59 µM; IC50 [1, 3]: 2.94 nM; IC50 ([2]; average IC50, cell assay (Table II)): 10.8 nM
5 | COc1cnc(C(=O)Nc2ccc(F)c([C@]34COC[C@H]3S(=O)(=O)C(C)(C)C(N)=N4)c2)c(C)c1 [Example 430, N-(3-((4aS,7aS)-3-amino-2,2-dimethyl-1,1-dioxido-7,7a-dihydro-2H-furo[3,4-13][1,4]thiazin-4a(5H)-yl)-4-fluorophenyl)-5-methoxy-3-methyl-2-pyridinecarboxamide] | – | 4.1 | 11.7 | – | – | % reduction of rat CSF levels at 10 pmk (Abeta 40; rat CSF): 31%; % reduction of rat brain levels at 10 mpk (Abeta 40; rat brain): 1%
6 | CC1(C)C(N)=N[C@](CF)(c2cc(Nc3nccc4cc(Cl)cnc34)ccc2F)CS1(=O)=O [Example 448, N-(3-((3S)-5-amino-3-(fluoromethyl)-6,6-dimethyl-1,1-dioxido-3,6-dihydro-2H-1,4-thiazn-3-yl)-4-fluorophenyl)-3-chloro-1,7-naphthyridin-8-amine] | – | – | 28.5 | – | – | –
7 | CO[C@H]1C[C@]2(C1)C(N)=N[C@](C)(c1cc(NC(=O)c3ncc(Cl)cc3C)ccc1F)CS2(=O)=O [Example 460, N-(3-((2R,4r,7R)-9-amino-2-methoxy-7-methyl-5,5-dioxido-5-thia-8-azaspiro[3.5]non-8-en-7-yl)-4-fluorophenyl)-5-chloro-3-methylpicolinamide] | – | 4 | – | 466 | 34.9 | –
8 | COc1cnc(C(=O)Nc2ccc(F)c([C@]3(C)CS(=O)(=O)[C@]4(C[C@H](OC)C4)C(N)=N3)c2)c(C)c1 [Example 461, N-(3-((2R,4r,7R)-9-amino-2-methoxy-7-methyl-5,5-dioxido-5-thia-8-azaspiro[3.5]non-8-en-7-yl)-4-fluorophenyl)-5-methoxy-3-methylpicolinamide] | – | 15.7 | – | 399 | 28 | –
9 | Cc1c(C(=O)Nc2ccc(F)c([C@@]3(C)N=C(N)C4(CC4)S(=O)(=O)[C@H]3F)c2)nc2ccc(Cl)cn12 [Example 462, N-(3-((5R,6R)-8-amino-5-fluoro-6-methyl-4,4-dioxido-4-thia-7-azaspiro[2.5]oct-7-en-6-yl)-4-fluorophenyl)-6-chloro-3-methylimidazo[1,2-a]pyridine-2-carboxamide] | – | 3.2 | – | 60.1 | 10.4 | –
10 | COc1cnc(C(=O)Nc2ccc(F)c([C@]3(C)CS(=O)(=O)[C@]4(C[C@@H](F)C4)C(N)=N3)c2)c(C)c1 [Example 463, N-(3-((2S,4s,7R)-9-amino-2-fluoro-7-methyl-5,5-dioxido-5-thia-8-azaspiro[3.5]non-8-en-7-yl)-4-fluorophenyl)-5-methoxy-3-methylpicolinamide] | – | 4.6 | – | 76.5 | 13.2 | –
11 | Cc1c(C(=O)Nc2ccc(F)c([C@]3(C)CS(=O)(=O)[C@]4(C[C@@H](F)C4)C(N)=N3)c2)nc2ccc(Cl)cn12 [Example 464, N-(3-((2 S,4s,7R)-9-amino-2-fluoro-7-methyl-5,5-dioxido-5-thia-8-azaspiro[3.5]non-8-en-7-yl)-4-fluorophenyl)-6-chloro-3-methylimidazo[1,2-a]pyridine-2-carboxamide] | – | 4 | – | 67.4 | 6 | –
12 | N-(3-((4aR,7aR)-3-amino-2,2-dimethyl-1,1-dioxido-7,7a-dihydro-2H-furo[3,4-b][1,4]thiazin-4a(5H)-yl)-4-fluorophenyl)-5-(difluoromethoxy)-3-methyl-2-pyridinecarboxamide,N-(3-((4aS,7aS)-3-amino-2,2-dimethyl-1,1-dioxido-7,7a-dihydro-2H-furo[3,4-b][1,4]thiazin-4a(5H)-yl)-4-fluorophenyl)-5-(difluoromethoxy)-3-methyl-2-pyridinecarboxamide [Example 413] | 111 | – | – | – | – | IC50 ([1]; average IC50): 2.65 nM; IC50 ([2]; average IC50): 10.3 nM
13 | N-(3-((4aR,7aS)-3-amino-2,2-dimethyl-1,1-dioxido-7,7a-dihydro-2H-furo[3,4-b][1,4]thiazin-4a(5H)-yl)-4-fluorophenyl)-3-chloro-1,7-naphthyridin-8-amine,N-(3-((4aS,7aR)-3-amino-2,2-dimethyl-1,1-dioxido-7,7a-dihydro-2H-furo[3,4-b][1,4]thiazin-4a(5H)-yl)-4-fluorophenyl)-3-chloro-1,7-naphthyridin-8-amine [Example 429] | 131 | 4.6 | 157 | – | – | –
14 | N-(3-((4aR,7aS)-3-amino-2,2-dimethyl-1,1-dioxido-7,7a-dihydro-2H-furo[3,4-b][1,4]thiazin-4a(5H)-yl)-4-fluorophenyl)-5-chloro-2-pyridinecarboxamide,N-(3-((4aS,7aR)-3-amino-2,2-dimethyl-1,1-dioxido-7,7a-dihydro-2H-furo[3,4-b][1,4]thiazin-4a(5H)-yl)-4-fluorophenyl)-5-chloro-2-pyridinecarboxamide [Example 426] | 170 | 1.5 | 13.6 | – | – | –
15 | N-(3-((4aR,7aS)-3-amino-2,2-dimethyl-1,1-dioxido-7,7a-dihydro-2H-furo[3,4-b][1,4]thiazin-4a(5H)-yl)-4-fluorophenyl)-5-chloro-3-methyl-2-pyridinecarboxamide,N-(3-((4aS,7aR)-3-amino-2,2-dimethyl-1,1-dioxido-7,7a-dihydro-2H-furo[3,4-13][1,4]thiazin-4a(5H)-yl)-4-fluorophenyl)-5-chloro-3-methyl-2-pyridinecarboxamide [Example 427] | 220 | 1 | 33 | – | – | –
